Structures are written as SMILES. The source made the active and inactive calls. The calls are words filed in the database; no cut-off is given here.

The assay concerns the target T1, Vitamin D3 receptor (Homo sapiens) (UniProt P11473).
T1 sequence (whole entry): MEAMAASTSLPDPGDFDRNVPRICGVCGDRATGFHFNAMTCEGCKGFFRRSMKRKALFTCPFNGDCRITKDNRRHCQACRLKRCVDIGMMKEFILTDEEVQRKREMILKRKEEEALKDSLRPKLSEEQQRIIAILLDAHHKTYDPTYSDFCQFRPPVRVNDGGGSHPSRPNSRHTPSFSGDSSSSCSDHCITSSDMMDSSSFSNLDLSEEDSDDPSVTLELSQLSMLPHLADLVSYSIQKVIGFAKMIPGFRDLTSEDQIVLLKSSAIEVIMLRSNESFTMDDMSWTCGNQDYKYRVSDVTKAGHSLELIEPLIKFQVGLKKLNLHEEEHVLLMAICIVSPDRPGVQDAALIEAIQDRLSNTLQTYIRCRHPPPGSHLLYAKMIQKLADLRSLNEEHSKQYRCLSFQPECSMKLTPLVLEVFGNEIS
In words: Enhancement of VDR mediated transcriptional activity in human MCF7 cells. The format is cell-based.
As to `C=C1C[C@@H](CCCO)[C@H](O)C/C1=C/C=C1\CCC[C@]2(C)[C@@H]([C@H](C)CCCC(C)(C)O)CC[C@@H]12`, the result was Active.

Turning to `C=C1/C(=C\C=C2/CCC[C@]3(C)[C@@H]([C@H](C)CCCC(C)(C)O)CC[C@@H]23)C[C@@H](O)[C@H](CCCO)[C@H]1CO`, the outcome was Active.

`C=C1/C(=C\C=C2/CCC[C@]3(C)[C@@H]([C@H](C)CCCC(C)(C)O)CC[C@@H]23)C[C@@H](O)[C@H](CCCO)[C@@H]1CO`: the outcome was Active.

As for `C=C1/C(=C\C=C2/CCC[C@]3(C)[C@@H]([C@H](C)CCCC(C)(C)O)CC[C@@H]23)C[C@@H](O)[C@H](CCCO)[C@@H]1O`, the result was Active.

Values taken from ChEMBL document CHEMBL1143991, “The 2alpha-(3-hydroxypropyl) group as an active motif in vitamin D3 analogues as agonists of the mutant vitamin D receptor (Arg274Leu)” (Bioorg Med Chem, 2008).
